Assay results as given in article PMC4904262 (ACS Medicinal Chemistry Letters, 2016).

Tests used:
PI3K DELTA = PI3K DELTA (Homo sapiens, UniProt O00329); conditions: 1 µM, ATP at Km
MST3 = MST3 (Homo sapiens, UniProt Q9Y6E0); conditions: 1 µM, ATP at Km
KDR = KDR (Homo sapiens, UniProt P35968); conditions: 1 µM, ATP at Km
LCK = LCK (Homo sapiens, UniProt P06239); conditions: LCK (first listing, page 9); 1 µM; ATP at Km
MNK2 = MNK2 (Homo sapiens, UniProt Q9HBH9); conditions: 1 µM, ATP at Km
ULK3 = ULK3 (Homo sapiens, UniProt Q6PHR2); conditions: 1 µM, ATP at Km
HCK = HCK (Homo sapiens, UniProt P08631); conditions: HCK (first listing, page 8); 1 µM; ATP at Km
MAPK2 = MAPK2 (Homo sapiens, UniProt P28482); conditions: 1 µM, ATP at Km
EPHB1 = EPHB1 (Homo sapiens, UniProt P54762); conditions: 1 µM, ATP at Km
NEK3 = NEK3 (Homo sapiens, UniProt P51956); conditions: 1 µM, ATP at Km
PKCDELTA = PKCDELTA (Homo sapiens, UniProt Q05655); conditions: 1 µM, ATP at Km
RET = RET (Homo sapiens, UniProt P07949); conditions: 1 µM, ATP at Km
RIPK2 = RIPK2 (Homo sapiens, UniProt O43353); conditions: 1 µM, ATP at Km
MSSK1 = MSSK1 (Homo sapiens, UniProt Q9UPE1); conditions: 1 µM, ATP at Km
IRAK4 = IRAK4 (Homo sapiens, UniProt Q9NWZ3); conditions: 1 µM, ATP at Km
CK2 = CK2 (Homo sapiens, UniProt P68400); conditions: 1 µM, ATP at Km
NLK = NLK (Homo sapiens, UniProt Q9UBE8); conditions: 1 µM, ATP at Km
FGFR4 = FGFR4 (Homo sapiens, UniProt P22455); conditions: 1 µM, ATP at Km
TRKA = TRKA (Homo sapiens, UniProt P04629); conditions: 1 µM, ATP at Km
TLK2 = TLK2 (Homo sapiens, UniProt Q86UE8); conditions: 1 µM, ATP at Km
MEK1 = MEK1 (Homo sapiens, UniProt Q02750); conditions: 1 µM, ATP at Km
ITK = ITK (Homo sapiens, UniProt Q08881); conditions: 1 µM, ATP at Km
IRR = IRR (Homo sapiens, UniProt P14616); conditions: 1 µM, ATP at Km
YES = YES (Homo sapiens, UniProt P07947); conditions: 1 µM, ATP at Km
IR, ACTIVATED = IR, ACTIVATED (Homo sapiens, UniProt P06213); conditions: 1 µM, ATP at Km
PIP4K2A = PIP4K2A (Homo sapiens, UniProt P48426); conditions: 1 µM, ATP at Km
ULK2 = ULK2 (Homo sapiens, UniProt Q8IYT8); conditions: 1 µM, ATP at Km
CAMKIIBETA = CAMKIIBETA (Homo sapiens, UniProt Q13554); conditions: 1 µM, ATP at Km
phospho-STAT1^SER727 = assay: cells; conditions: Homo sapiens, SW-620, read-out: pSTAT1^SER727 IC50 ± SD
PAK5 = PAK5 (Homo sapiens, UniProt Q9P286); conditions: 1 µM, ATP at Km
PIM-3 = PIM-3 (Homo sapiens, UniProt Q86V86); conditions: 1 µM, ATP at Km
MLCK = conditions: 1 µM, ATP at Km
SAPK4 = SAPK4 (Homo sapiens, UniProt O15264); conditions: 1 µM, ATP at Km
MRCKBETA = MRCKBETA (Homo sapiens, UniProt Q9Y5S2); conditions: 1 µM, ATP at Km
MSK1 = MSK1 (Homo sapiens, UniProt O75582); conditions: 1 µM, ATP at Km
SGK2 = SGK2 (Homo sapiens, UniProt Q9HBY8); conditions: 1 µM, ATP at Km
PIM-2 = PIM-2 (Homo sapiens, UniProt Q9P1W9); conditions: 1 µM, ATP at Km
[…] = […] (Homo sapiens, UniProt Q8IU85); conditions: 1 µM, ATP at Km
EEF-2K = EEF-2K (Homo sapiens, UniProt O00418); conditions: 1 µM, ATP at Km
STK33 = STK33 (Homo sapiens, UniProt Q9BYT3); conditions: 1 µM, ATP at Km
PRKAA1 = PRKAA1 (Homo sapiens, UniProt Q13131); conditions: 1 µM, ATP at Km
TAK1 = TAK1 (Homo sapiens, UniProt O43318); conditions: 1 µM, ATP at Km
ACK1 = ACK1 (Homo sapiens, UniProt Q07912); conditions: 1 µM, ATP at Km
SRPK2 = SRPK2 (Homo sapiens, UniProt P78362); conditions: 1 µM, ATP at Km

Chain of IR, ACTIVATED (P06213 28-1382): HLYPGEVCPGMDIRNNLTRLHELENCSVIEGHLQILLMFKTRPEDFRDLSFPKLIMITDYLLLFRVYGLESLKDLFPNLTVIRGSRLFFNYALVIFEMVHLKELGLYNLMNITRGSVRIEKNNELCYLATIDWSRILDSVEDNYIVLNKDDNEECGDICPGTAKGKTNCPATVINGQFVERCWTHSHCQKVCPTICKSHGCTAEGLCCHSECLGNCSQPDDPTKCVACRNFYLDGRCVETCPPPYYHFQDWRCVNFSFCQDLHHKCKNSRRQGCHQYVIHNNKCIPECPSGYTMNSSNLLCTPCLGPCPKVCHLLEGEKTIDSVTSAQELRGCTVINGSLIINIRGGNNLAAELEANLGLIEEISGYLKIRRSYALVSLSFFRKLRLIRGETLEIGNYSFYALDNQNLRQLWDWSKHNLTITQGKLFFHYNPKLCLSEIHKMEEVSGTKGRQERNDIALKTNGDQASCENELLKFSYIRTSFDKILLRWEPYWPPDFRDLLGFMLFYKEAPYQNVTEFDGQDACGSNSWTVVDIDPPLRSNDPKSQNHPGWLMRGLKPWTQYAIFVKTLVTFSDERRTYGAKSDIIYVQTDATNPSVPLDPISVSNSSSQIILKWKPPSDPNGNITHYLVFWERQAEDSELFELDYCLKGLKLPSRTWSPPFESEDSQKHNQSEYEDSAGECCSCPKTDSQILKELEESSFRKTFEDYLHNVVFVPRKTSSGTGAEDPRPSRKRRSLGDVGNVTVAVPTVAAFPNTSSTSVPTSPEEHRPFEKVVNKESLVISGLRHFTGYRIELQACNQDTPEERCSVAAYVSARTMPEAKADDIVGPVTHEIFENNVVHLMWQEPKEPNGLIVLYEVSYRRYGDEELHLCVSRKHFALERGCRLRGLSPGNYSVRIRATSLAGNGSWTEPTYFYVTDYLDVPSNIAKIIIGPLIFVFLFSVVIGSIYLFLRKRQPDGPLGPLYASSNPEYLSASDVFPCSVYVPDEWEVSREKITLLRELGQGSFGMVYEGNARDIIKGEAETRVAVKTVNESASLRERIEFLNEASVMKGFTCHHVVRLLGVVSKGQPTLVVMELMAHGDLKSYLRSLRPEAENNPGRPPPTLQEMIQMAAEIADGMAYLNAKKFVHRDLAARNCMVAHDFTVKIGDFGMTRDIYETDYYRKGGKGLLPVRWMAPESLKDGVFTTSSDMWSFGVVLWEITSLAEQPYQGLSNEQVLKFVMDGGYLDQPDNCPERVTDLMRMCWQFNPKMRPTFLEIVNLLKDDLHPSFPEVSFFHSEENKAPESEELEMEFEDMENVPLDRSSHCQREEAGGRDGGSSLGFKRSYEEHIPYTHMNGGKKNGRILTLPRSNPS
Chain of MSSK1 (Q9UPE1 whole entry): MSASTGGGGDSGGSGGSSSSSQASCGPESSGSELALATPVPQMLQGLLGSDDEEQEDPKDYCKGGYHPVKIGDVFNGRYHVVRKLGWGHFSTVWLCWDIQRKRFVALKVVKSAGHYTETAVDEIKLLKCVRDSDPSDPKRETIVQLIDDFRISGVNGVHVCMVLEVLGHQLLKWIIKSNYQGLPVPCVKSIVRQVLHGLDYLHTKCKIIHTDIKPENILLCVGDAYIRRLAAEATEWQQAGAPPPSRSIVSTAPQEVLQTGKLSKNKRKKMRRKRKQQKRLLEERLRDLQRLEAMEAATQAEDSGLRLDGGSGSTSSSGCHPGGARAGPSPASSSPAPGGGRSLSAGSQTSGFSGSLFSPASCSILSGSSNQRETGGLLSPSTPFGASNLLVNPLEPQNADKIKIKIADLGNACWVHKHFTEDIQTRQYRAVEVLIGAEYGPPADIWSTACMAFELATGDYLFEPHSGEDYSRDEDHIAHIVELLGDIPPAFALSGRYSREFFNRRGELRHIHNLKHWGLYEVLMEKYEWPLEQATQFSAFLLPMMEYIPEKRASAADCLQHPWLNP
Chain of LCK (P06239 whole entry): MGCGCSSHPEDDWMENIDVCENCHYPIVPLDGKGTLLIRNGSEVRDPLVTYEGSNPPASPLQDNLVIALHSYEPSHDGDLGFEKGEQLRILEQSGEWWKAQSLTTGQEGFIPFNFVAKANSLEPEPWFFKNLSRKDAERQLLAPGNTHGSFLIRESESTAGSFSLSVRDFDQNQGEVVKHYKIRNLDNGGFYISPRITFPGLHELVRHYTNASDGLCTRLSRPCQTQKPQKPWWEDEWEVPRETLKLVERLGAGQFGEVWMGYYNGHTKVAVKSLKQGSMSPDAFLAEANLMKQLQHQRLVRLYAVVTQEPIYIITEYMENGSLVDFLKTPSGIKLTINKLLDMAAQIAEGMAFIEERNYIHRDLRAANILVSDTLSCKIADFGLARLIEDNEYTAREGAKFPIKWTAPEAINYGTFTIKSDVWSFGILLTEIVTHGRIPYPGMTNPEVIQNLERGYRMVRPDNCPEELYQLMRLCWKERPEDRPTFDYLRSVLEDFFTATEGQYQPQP
Chain of MRCKBETA (Q9Y5S2 whole entry): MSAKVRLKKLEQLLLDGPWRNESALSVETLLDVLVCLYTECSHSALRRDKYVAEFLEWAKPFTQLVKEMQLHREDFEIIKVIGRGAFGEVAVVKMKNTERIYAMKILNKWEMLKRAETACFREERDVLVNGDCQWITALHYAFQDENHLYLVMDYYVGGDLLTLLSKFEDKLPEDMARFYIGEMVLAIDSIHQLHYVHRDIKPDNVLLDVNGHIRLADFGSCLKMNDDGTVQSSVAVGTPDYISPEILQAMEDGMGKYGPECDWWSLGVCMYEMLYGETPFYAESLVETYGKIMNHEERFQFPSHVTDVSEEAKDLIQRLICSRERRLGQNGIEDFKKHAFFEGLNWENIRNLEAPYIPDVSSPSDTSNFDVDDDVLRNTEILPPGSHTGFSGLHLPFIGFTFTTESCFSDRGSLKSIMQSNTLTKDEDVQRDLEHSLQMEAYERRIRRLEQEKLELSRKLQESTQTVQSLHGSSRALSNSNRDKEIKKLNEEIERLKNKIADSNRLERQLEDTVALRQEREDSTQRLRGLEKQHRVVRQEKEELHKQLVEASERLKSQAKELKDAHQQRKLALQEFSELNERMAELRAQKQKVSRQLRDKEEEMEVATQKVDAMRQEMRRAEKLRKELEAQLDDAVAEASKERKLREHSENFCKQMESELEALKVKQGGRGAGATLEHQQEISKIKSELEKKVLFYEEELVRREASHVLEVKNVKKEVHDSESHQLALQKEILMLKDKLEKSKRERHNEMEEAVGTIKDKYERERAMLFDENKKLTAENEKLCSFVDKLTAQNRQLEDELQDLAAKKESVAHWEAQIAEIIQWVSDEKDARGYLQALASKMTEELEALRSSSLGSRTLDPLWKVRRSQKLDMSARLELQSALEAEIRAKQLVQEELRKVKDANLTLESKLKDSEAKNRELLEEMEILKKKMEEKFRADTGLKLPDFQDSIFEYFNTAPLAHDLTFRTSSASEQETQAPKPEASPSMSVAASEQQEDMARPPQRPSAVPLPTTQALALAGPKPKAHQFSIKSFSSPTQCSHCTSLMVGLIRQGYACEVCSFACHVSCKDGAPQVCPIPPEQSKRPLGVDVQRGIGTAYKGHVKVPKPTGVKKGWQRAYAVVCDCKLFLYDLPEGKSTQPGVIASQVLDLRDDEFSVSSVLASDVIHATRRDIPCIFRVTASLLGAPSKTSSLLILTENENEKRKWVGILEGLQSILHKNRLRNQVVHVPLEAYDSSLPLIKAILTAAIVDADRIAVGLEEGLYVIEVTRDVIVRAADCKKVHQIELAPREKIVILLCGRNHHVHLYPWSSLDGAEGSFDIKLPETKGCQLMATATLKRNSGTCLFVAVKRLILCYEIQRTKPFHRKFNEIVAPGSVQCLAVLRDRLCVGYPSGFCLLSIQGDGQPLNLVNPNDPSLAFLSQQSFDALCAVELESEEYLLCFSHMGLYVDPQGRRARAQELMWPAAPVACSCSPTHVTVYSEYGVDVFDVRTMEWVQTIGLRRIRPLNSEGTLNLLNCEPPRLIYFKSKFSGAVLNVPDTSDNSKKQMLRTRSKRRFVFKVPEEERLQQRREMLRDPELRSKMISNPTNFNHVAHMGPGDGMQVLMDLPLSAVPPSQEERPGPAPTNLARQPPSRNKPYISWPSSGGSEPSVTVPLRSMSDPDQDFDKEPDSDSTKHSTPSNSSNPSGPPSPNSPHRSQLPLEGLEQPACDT
Chain of MST3 (Q9Y6E0 whole entry): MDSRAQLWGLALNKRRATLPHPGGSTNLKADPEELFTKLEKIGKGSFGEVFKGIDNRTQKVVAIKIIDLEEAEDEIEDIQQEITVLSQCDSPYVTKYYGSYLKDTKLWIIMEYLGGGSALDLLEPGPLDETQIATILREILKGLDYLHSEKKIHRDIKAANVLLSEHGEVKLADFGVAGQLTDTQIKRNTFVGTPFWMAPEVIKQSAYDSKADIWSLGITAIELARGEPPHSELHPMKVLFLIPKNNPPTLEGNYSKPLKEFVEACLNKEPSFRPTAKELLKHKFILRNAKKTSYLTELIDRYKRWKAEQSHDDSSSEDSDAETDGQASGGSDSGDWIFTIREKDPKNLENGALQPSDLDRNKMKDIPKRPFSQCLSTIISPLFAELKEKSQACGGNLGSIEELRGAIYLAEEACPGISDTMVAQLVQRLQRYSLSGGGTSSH
Chain of NEK3 (P51956 whole entry): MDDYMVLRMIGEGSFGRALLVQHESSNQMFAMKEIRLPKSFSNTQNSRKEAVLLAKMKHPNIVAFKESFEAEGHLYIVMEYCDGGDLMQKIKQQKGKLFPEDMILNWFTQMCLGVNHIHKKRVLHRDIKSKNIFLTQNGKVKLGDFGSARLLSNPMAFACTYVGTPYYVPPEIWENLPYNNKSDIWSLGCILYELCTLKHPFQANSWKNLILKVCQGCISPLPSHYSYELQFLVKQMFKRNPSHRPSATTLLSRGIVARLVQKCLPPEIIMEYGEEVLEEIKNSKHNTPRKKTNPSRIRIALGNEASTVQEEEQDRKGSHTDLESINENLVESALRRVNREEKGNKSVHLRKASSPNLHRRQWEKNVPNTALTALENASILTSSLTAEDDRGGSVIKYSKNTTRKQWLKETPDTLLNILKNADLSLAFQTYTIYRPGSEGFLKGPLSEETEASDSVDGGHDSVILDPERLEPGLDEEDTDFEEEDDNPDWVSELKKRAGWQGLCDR

## COC1CN(C(=O)c2ccc3c(N)ncc(-c4ccc(-c5cnn(C)c5)cc4)c3c2)C1 [Compound 59]
PI3K DELTA
  percentage effect: -10%
MST3
  percentage effect: -34%
KDR
  percentage effect: -5%
LCK
  percentage effect: -18%
MNK2
  percentage effect: -4%
ULK3
  percentage effect: 8%
HCK
  percentage effect: -3%
MAPK2
  percentage effect: -4%
EPHB1
  percentage effect: -44%
NEK3
  percentage effect: -2%
PKCDELTA
  percentage effect: 0%
RET
  percentage effect: 6%
RIPK2
  percentage effect: -5%
MSSK1
  percentage effect: 13%
IRAK4
  percentage effect: 1%
CK2
  percentage effect: 8%
NLK
  percentage effect: -5%
FGFR4
  percentage effect: 14%
TRKA
  percentage effect: -25%
TLK2
  percentage effect: -5%
MEK1
  percentage effect: -9%
ITK
  percentage effect: 2%
IRR
  percentage effect: -5%
YES
  percentage effect: -18%
IR, ACTIVATED
  percentage effect: -2%
PIP4K2A
  percentage effect: 1%
ULK2
  percentage effect: 8%
CAMKIIBETA
  percentage effect: 5%
phospho-STAT1^SER727
  IC50: 0.114 ± 0.0206 µM
PAK5
  percentage effect: -7%
PIM-3
  percentage effect: 9%
MLCK
  percentage effect: -20%
SAPK4
  percentage effect: -13%
MRCKBETA
  percentage effect: 13%
MSK1
  percentage effect: 0%
SGK2
  percentage effect: 38%
PIM-2
  percentage effect: 14%
[…]
  percentage effect: 5%
EEF-2K
  percentage effect: 8%
STK33
  percentage effect: 1%
PRKAA1
  percentage effect: -3%
TAK1
  percentage effect: -13%
ACK1
  percentage effect: -10%
SRPK2
  percentage effect: -2%

## COC1CN(C(=O)c2ccc3c(N)ncc(-c4ccc(-c5cnn(C)c5)cc4)c3n2)C1 [Compound 51]
PI3K DELTA
  percentage effect: -10%
MST3
  percentage effect: 7%
KDR
  percentage effect: 0%
LCK
  percentage effect: 2%
MNK2
  percentage effect: -7%
ULK3
  percentage effect: 2%
HCK
  percentage effect: -6%
MAPK2
  percentage effect: 6%
EPHB1
  percentage effect: 13%
NEK3
  percentage effect: -14%
PKCDELTA
  percentage effect: 4%
RET
  percentage effect: -2%
RIPK2
  percentage effect: -16%
MSSK1
  percentage effect: 7%
IRAK4
  percentage effect: -9%
CK2
  percentage effect: 5%
NLK
  percentage effect: -3%
FGFR4
  percentage effect: 3%
TRKA
  percentage effect: -23%
TLK2
  percentage effect: 2%
MEK1
  percentage effect: -18%
ITK
  percentage effect: -6%
IRR
  percentage effect: -2%
YES
  percentage effect: -22%
IR, ACTIVATED
  percentage effect: -15%
PIP4K2A
  percentage effect: -5%
ULK2
  percentage effect: 4%
CAMKIIBETA
  percentage effect: -10%
phospho-STAT1^SER727
  IC50: 0.0179 ± 0.0106 µM
PAK5
  percentage effect: -23%
PIM-3
  percentage effect: -9%
MLCK
  percentage effect: 0%
SAPK4
  percentage effect: 2%
MRCKBETA
  percentage effect: -4%
MSK1
  percentage effect: -2%
SGK2
  percentage effect: -46%
PIM-2
  percentage effect: 16%
[…]
  percentage effect: -3%
EEF-2K
  percentage effect: 2%
STK33
  percentage effect: -15%
PRKAA1
  percentage effect: -1%
TAK1
  percentage effect: -9%
ACK1
  percentage effect: 0%
SRPK2
  percentage effect: 0%
